Experiments:
[1] = system: SD rats; test: Acute administration of A28 at multiple doses, glucose tolerance of SD rats; format: in vivo, rat; conditions: for AUC0-2 h / Average hypoglycemic rate % (0-2 h) / Blood glucose level 15 min / Blood glucose level 30 min / Blood glucose level 60 min / Blood glucose level 90 min / Blood glucose level 120 min / Blood glucose level 0: SD rats OGTT; for Blood glucose level 0: before sugar
Protocol: (1) 80 SD rats were selected and starved overnight, took water freely, then randomly divided into 10 groups according to body weight and random blood glucose, 8 rats in each group. […] 1 h after oral gavage, 3 g/kg of glucose was orally administered to each group except blank control group, and the blood glucose level was monitored before the sugar administration, and at 15, 30, 60, 90 and 120 minutes after the sugar administration.
Average hypoglycemic rate %=(AUC0-120 min of solvent control group−AUC0-120 min of administration group)/(AUC0-120 min of solvent control group−AUC0-120 min of blank control group)*100%

[2] = system: C57BL/6J mice; test: Acute administration of A28 at multiple doses, urinary glucose of C57BL/6J mice; format: in vivo, mouse; conditions: for Total sugar excretion / Urine concentration / Urine volume: 24 h urine
Protocol: (1) 90 normal male C57BL/6J mice were selected and randomly divided into 9 groups according to body weight and blood glucose, 10 in each group. […] After oral gavage, the mice were placed in rats (mice) metabolic cages, […] and urine was collected after 24 h, and the urine volume was recorded, then preserved under −20° C. Rats take food and water freely during the experimental period.
(2) Index Determination: Glucose levels in urine are measured by the glucose assay kit.

[3] = system: db/db mice; test: Chronic administration, fasting blood glucose in db/db mice; format: in vivo, mouse; conditions: for fasting blood glucose Pre: before administration
Protocol: Oral gavage administrated, daily dose volume was 10 mL/kg, administered once daily. Administration time was 9: 00-10:00 daily, and the administration period was 5 weeks.
The random blood glucose of mice in the normal control group, model control group, test substance administration group and positive control group were determined on the 7th, 14th, 21st, 28th day (9: 00-10:00) every week after the first administration, and food was removed and after 6 hours of starvation, the fasting blood glucose in each group was measured. Free drinking during the hunger process. The rate of decrease of blood glucose was calculated according to the following formula: Average hypoglycemic rate %=(Blood glucose of model control group−Blood glucose of administration group)/Model control group×100%

## CCc1ccc(Cc2cc3c(cc2Cl)CO[C@]32O[C@H](C)[C@@H](O)[C@H](O)[C@H]2O)s1 [Example A28, (1S,3′R,4′S,5′S,6′R)-6′-methyl-6-((5-ethylthienyl)-2-methyl)-5-chloro-3′,4′,5′,6′-tetrahydro-3H-spiro[isobenzofuran-1,2′-pyran]-3′,4′,5′-triol]
[1]; oral 0.3 mg/kg
  AUC0-2 h: 19.1 ± 1.77 mmol·h/L
  Average hypoglycemic rate % (0-2 h): 10.3%
  Blood glucose level 15 min: 7.6 ± 0.8 mmol/L
  Blood glucose level 30 min: 10.1 ± 1.6 mmol/L
  Blood glucose level 60 min: 11.1 ± 1.3 mmol/L
  Blood glucose level 90 min: 10.5 ± 0.8 mmol/L
  Blood glucose level 120 min: 8.1 ± 1.3 mmol/L
  Blood glucose level 0: 5.0 ± 0.7 mmol/L
[1]; oral 1 mg/kg
  AUC0-2 h: 15.6 ± 0.9 mmol·h/L
  Average hypoglycemic rate % (0-2 h): 45.0%
  Blood glucose level 15 min: 5.4 ± 0.9 mmol/L
  Blood glucose level 30 min: 6.5 ± 1.1 mmol/L
  Blood glucose level 60 min: 8.4 ± 0.6 mmol/L
  Blood glucose level 90 min: 9.6 ± 1.2 mmol/L
  Blood glucose level 120 min: 9.0 ± 1.3 mmol/L
  Blood glucose level 0: 4.4 ± 0.3 mmol/L
[1]; oral 3 mg/kg
  AUC0-2 h: 11.6 ± 0.9 mmol·h/L
  Average hypoglycemic rate % (0-2 h): 83.7%
  Blood glucose level 15 min: 3.6 ± 0.5 mmol/L
  Blood glucose level 30 min: 4.3 ± 0.3 mmol/L
  Blood glucose level 60 min: 5.6 ± 0.7 mmol/L
  Blood glucose level 90 min: 7.4 ± 0.6 mmol/L
  Blood glucose level 120 min: 8.4 ± 1.6 mmol/L
  Blood glucose level 0: 3.7 ± 0.4 mmol/L
[1]; oral 10 mg/kg
  AUC0-2 h: 7.6 ± 0.9 mmol·h/L
  Average hypoglycemic rate % (0-2 h): 122.4%
  Blood glucose level 15 min: 3.0 ± 0.4 mmol/L
  Blood glucose level 30 min: 3.4 ± 0.4 mmol/L
  Blood glucose level 60 min: 4.3 ± 1.8 mmol/L
  Blood glucose level 90 min: 4.2 ± 0.4 mmol/L
  Blood glucose level 120 min: 3.7 ± 0.9 mmol/L
  Blood glucose level 0: 3.1 ± 0.4 mmol/L
[1]; SD rats, single oral dose
  2 h hypoglycemic effect compared with Dapagliflozin: equivalent 2 h hypoglycemic effect to positive Dapagliflozin
[2]; at the same dose
  urinary exclusion effect compared with Dapagliflozin: equal to or stronger than positive control Dapagliflozin
[2]; oral 0.3 mg/kg
  Total sugar excretion: 10.31 ± 3.26 mg/100 g
  Urine concentration: 7.91 ± 2.50 mmol/L
  Urine volume: 2.1 ± 0.7 mL
[2]; oral 1 mg/kg
  Total sugar excretion: 175.49 ± 55.53 mg/100 g
  Urine concentration: 133.28 ± 42.18 mmol/L
  Urine volume: 1.8 ± 0.6 mL
[2]; oral 3 mg/kg
  Total sugar excretion: 440.02 ± 139.25 mg/100 g
  Urine concentration: 265.71 ± 84.09 mmol/L
  Urine volume: 2.1 ± 0.7 mL
[2]; oral 10 mg/kg
  Total sugar excretion: 712.00 ± 225.32 mg/100 g
  Urine concentration: 344.07 ± 108.88 mmol/L
  Urine volume: 2.5 ± 0.8 mL
[2]; single oral, within 24 hours
  effective dose, urine glucose excretion: ≤ 0.3 mg/kg
[3]; 0.3 mg/kg once daily oral
  fasting blood glucose week 1: 10.6 ± 0.9 mmol/L
  fasting blood glucose week 2: 10.5 ± 0.8 mmol/L
  fasting blood glucose week 3: 12.3 ± 0.9 mmol/L
  fasting blood glucose week 4: 12.6 ± 1.2 mmol/L
  fasting blood glucose Pre: 13.2 ± 0.7 mmol/L
[3]; 1 mg/kg once daily oral
  fasting blood glucose week 1: 8.7 ± 0.6 mmol/L
  fasting blood glucose week 2: 9.4 ± 0.9 mmol/L
  fasting blood glucose week 3: 10.4 ± 1.0 mmol/L
  fasting blood glucose week 4: 10.0 ± 0.7 mmol/L
  fasting blood glucose Pre: 13.2 ± 1.3 mmol/L
[3]; 3 mg/kg once daily oral
  fasting blood glucose week 1: 8.6 ± 0.5 mmol/L
  fasting blood glucose week 2: 6.8 ± 0.6 mmol/L
  fasting blood glucose week 3: 8.1 ± 0.5 mmol/L
  fasting blood glucose week 4: 8.5 ± 0.6 mmol/L
  fasting blood glucose Pre: 13.5 ± 1.5 mmol/L

— patent US10550143B2, “C,O-spiro aryl glycoside compounds, preparation therefor and use thereof” (SHANGHAI INSTITUTE OF MATERIA MEDICA, CHINESE ACADEMY OF …, priority 2015, dated 2020)
